Measured values published in US8895568B2, “Compositions comprising substituted pteridines as agrochemicals” (Dow AgroSciences LLC, priority 2009, dated 2014).

Key:
Type in all cases: in vivo
Cochliobolus sativus = assay: Spot Blotch of Wheat (COCHSA), foliar spray, percent disease control; details: Bipolaris sorokiniana, foliar; read-out: COCHSA percent control
Colletotricum lagenarium = assay: Cucumber Anthracnose (COLLLA), foliar spray, percent disease control; details: foliar
Method: The activity of the compounds as effective fungicides was determined by applying the compounds to plants and observing control of fungal disease. The compounds were formulated at 200 ppm in 10 vol. % acetone plus 90 vol. % Triton X water (deionized water 99.99 wt %+0.01 wt % Triton X100), giving a “formulated test compound.” In a few cases, compounds were formulated at 75 or 8.3 ppm rather than 200 ppm in 10 vol. % acetone plus 90 vol. % Triton X water (deionized water 99.99 wt. %+0.01 wt. % Triton X100), giving a “formulated test compound.” Formulated test compounds were applied to plants using a turn table sprayer fitted with two opposing air atomization nozzles which delivered approximately 1500 L/ha of spray volume. All plants were inoculated with spores of the fungus the day after treatment, then incubated in an environment conducive to disease development. Disease severity was evaluated 4 to 15 days later, depending on the disease and the speed of disease development. The following experiments were performed in the laboratory to determine the fungicidal efficacy of the compounds of the invention. Cucumber Anthracnose (causal agent Colletotricum lagenarium; Bayer code COLLLA): Cucumber plants (variety Bush Champion) were grown from seed in a soil-less peat-based potting mixture (Metromix) until the first true leaf was 20-80% expanded. Each pot contained 1 seedling. These plants were sprayed until wet with the formulated test compound. On the following day, the leaves were inoculated with an aqueous spore suspension of Colletotricum lagenarium and the plants were kept in high humidity for one day to permit spores to germinate and infect the leaf. The plants were then transferred to a growth chamber until disease developed on untreated control plants. […] The effectiveness of the test compounds at controlling disease when sprayed on leaves was determined by assessing the severity of disease on treated plants, then converting the severity to percent control based on the level of disease on untreated, inoculated plants. Data are the level (in percent) at which the given disease was controlled when the given compound was applied to the foliage of the plants at 200 ppm. In a few cases (noted in the table) the compound was applied to the plants at 75 ppm or 8.3 ppm.

[1] = test system: Pseudoperonospora cubensis; assay: Cucumber Downy Mildew (PSPECU), foliar spray, percent disease control; details: foliar, read-out: PSPECU percent control
Method: The activity of the compounds as effective fungicides was determined by applying the compounds to plants and observing control of fungal disease. The compounds were formulated at 200 ppm in 10 vol. % acetone plus 90 vol. % Triton X water (deionized water 99.99 wt %+0.01 wt % Triton X100), giving a “formulated test compound.” In a few cases, compounds were formulated at 75 or 8.3 ppm rather than 200 ppm in 10 vol. % acetone plus 90 vol. % Triton X water (deionized water 99.99 wt. %+0.01 wt. % Triton X100), giving a “formulated test compound.” Formulated test compounds were applied to plants using a turn table sprayer fitted with two opposing air atomization nozzles which delivered approximately 1500 L/ha of spray volume. All plants were inoculated with spores of the fungus the day after treatment, then incubated in an environment conducive to disease development. Disease severity was evaluated 4 to 15 days later, depending on the disease and the speed of disease development. The following experiments were performed in the laboratory to determine the fungicidal efficacy of the compounds of the invention. Cucumber Downy Mildew (causal agent Pseudoperonospora cubensis; Bayer code […]): Cucumber plants (variety Bush Champion) were grown from seed in a soil-less peat-based potting mixture (Metromix) until the first true leaf was 20-80% expanded. Each pot contained 1 seedling. These plants were sprayed until wet with the formulated test compound. On the following day, the leaves were inoculated with an aqueous suspension of downy mildew sporangia and the plants were kept in high humidity for one day to permit sporangia to germinate and infect the leaf. The plants were then incubated in a growth chamber until disease developed on untreated control plants. […] The effectiveness of the test compounds at controlling disease when sprayed on leaves was determined by assessing the severity of disease on treated plants, then converting the severity to percent control based on the level of disease on untreated, inoculated plants. Data are the level (in percent) at which the given disease was controlled when the given compound was applied to the foliage of the plants at 200 ppm. In a few cases (noted in the table) the compound was applied to the plants at 75 ppm or 8.3 ppm.

| Structure (SMILES) | pest or weed control at 200 µg/mL (Cochliobolus sativus) [%] | pest or weed control at 200 µg/mL (Colletotricum lagenarium) [%] | pest or weed control at 200 µg/mL [1] [%] |
| --- | --- | --- | --- |
| COC(=O)c1ccnc(Oc2ccc(CCNc3ncnc4nccnc34)cc2)c1 [Compound 135] | 0 to 49 | 0 to 49 | 80 to 100 |
| CCc1ccc(Oc2ccc(CCN(C(=O)OC(C)(C)C)c3ncnc4nccnc34)cc2)cc1 [Compound 139] | 0 to 49 | 0 to 49 | 0 to 49 |
| Cc1c(CCNc2ncnc3nccnc23)ccc(Oc2cncc(Cl)c2C#N)c1C [Compound 147] | 0 to 49 | 0 to 49 | 80 to 100 |
| Cc1c(CCNc2ncnc3nccnc23)ccc(Oc2c(F)cnc(C(F)(F)F)c2F)c1C [Compound 149] | 0 to 49 | 0 to 49 | 80 to 100 |
| COc1cc(C)c(CCNc2ncnc3nccnc23)cc1C [Compound 151] | 0 to 49 | 0 to 49 | 80 to 100 |
| COc1ccc(CCNc2ncnc3nccnc23)cc1Cl [Compound 158] | 0 to 49 | 0 to 49 | 0 to 49 |
| Fc1cccc(Oc2ccc(OCCNc3ncnc4nccnc34)cc2)n1 [Compound 159] | 0 to 49 | 0 to 49 | 80 to 100 |
| FC(F)(F)c1cccnc1Oc1ccc(OCCNc2ncnc3nccnc23)cc1 [Compound 160] | 0 to 49 | 0 to 49 | 80 to 100 |
| Cc1nc2ncnc(NCCc3ccc(O)cc3)c2nc1C [Compound 161] | 0 to 49 | 0 to 49 | 0 to 49 |
| COc1cc(C(F)(F)F)cc(Oc2ccc(CCNc3ncnc4nccnc34)cc2C)n1 [Compound 167] | 0 to 49 | 0 to 49 | 80 to 100 |
| COc1cc(C(F)(F)F)cc(Oc2ccc(OCCNc3ncnc4nccnc34)cc2)n1 [Compound 168] | 0 to 49 | 0 to 49 | 0 to 49 |
| COc1cc(C(F)(F)F)cc(Oc2ccc(CCNc3ncnc4nccnc34)cc2)n1 [Compound 171] | 0 to 49 | 0 to 49 | 80 to 100 |
| CC(C)(C)c1cc[n+]([O-])c(Oc2ccc(CCNc3ncnc4nccnc34)cc2)c1 [Compound 172, {2-[4-(4-tert-Butyl-1-oxypyridin-2-yloxy)-phenyl]-ethyl}-pteridin-4-ylamine] | 0 to 49 | 0 to 49 | 80 to 100 |
| CC(C)OC(=O)c1ccnc(Oc2ccc(CCNc3ncnc4nccnc34)cc2)c1 [Compound 173] | 0 to 49 | 0 to 49 | 80 to 100 |
| Cc1cc(CCNc2ncnc3nccnc23)ccc1O [Compound 174] | 0 to 49 | 0 to 49 | 0 to 49 |
| Cc1c(O)ccc(CCNc2ncnc3nccnc23)c1C [Compound 175] | 0 to 49 | 0 to 49 | 0 to 49 |
| COc1ccc(CCNc2ncnc3nccnc23)cc1F [Compound 176] | 0 to 49 | 0 to 49 | 0 to 49 |
| Oc1ccc(CCNc2ncnc3nccnc23)cc1F [Compound 177] | 0 to 49 | 0 to 49 | 0 to 49 |
